Test results published in ChEMBL document CHEMBL4613296 (ACS Med Chem Lett, 2020).
Activity calls are given as the source filed them. The rule behind the calls is not given here.

What was measured:
[1] = test system: Trypanosoma brucei brucei; experiment: Antitrypanosomal activity against blood stage form of Trypanosoma brucei brucei 449 in presence of curcumin incubated for 24 hrs by ATPlite assay; format: functional, organism-based; details: Trypanosoma brucei, 449, 24 h
[2] = biological target: Rhodesain (Trypanosoma brucei rhodesiense) (UniProt Q95PM0); experiment: Inhibition of Trypanosoma brucei rhodesain using increasing concentration of Cbz-Phe-Arg-AMC as substrate incubated for 30 mins by fluorometric assay
Rhodesain (Trypanosoma brucei rhodesiense), sequence (Q95PM0 1-450): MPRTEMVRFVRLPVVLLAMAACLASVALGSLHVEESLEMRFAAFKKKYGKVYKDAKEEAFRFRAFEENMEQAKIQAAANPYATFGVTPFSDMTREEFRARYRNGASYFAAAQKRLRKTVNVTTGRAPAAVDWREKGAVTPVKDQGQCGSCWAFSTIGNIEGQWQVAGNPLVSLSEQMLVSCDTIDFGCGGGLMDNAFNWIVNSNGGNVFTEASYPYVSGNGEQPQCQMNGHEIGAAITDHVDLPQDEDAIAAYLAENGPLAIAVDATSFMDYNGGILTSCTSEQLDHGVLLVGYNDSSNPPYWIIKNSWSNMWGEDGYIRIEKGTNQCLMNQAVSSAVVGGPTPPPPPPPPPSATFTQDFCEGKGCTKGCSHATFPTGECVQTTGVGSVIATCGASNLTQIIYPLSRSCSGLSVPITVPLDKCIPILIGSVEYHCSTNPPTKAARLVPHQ

[3] = biological target: Rhodesain (Trypanosoma brucei rhodesiense) (UniProt Q95PM0); experiment: Inhibition of Trypanosoma brucei rhodesain assessed as combinational index measured at fraction affected value of 0.60 in presence of curcumin using Cbz-Phe-Arg-AMC as substrate incubated for 30 mins by fluorescence based assay
[4] = biological target: Rhodesain (Trypanosoma brucei rhodesiense) (UniProt Q95PM0); experiment: Inhibition of Trypanosoma brucei rhodesain assessed as combinational index measured at fraction affected value of 0.30 in presence of curcumin using Cbz-Phe-Arg-AMC as substrate incubated for 30 mins by fluorescence based assay
[5] = test system: Trypanosoma brucei brucei; experiment: Antitrypanosomal activity against blood stage form of Trypanosoma brucei brucei 449 incubated for 24 hrs by ATPlite assay; format: functional, organism-based; details: Trypanosoma brucei, 449, 24 h
[6] = biological target: Rhodesain (Trypanosoma brucei rhodesiense) (UniProt Q95PM0); experiment: Inhibition of Trypanosoma brucei rhodesain assessed as combinational index measured at fraction affected value of 0.40 in presence of curcumin using Cbz-Phe-Arg-AMC as substrate incubated for 30 mins by fluorescence based assay
[7] = biological target: Rhodesain (Trypanosoma brucei rhodesiense) (UniProt Q95PM0); experiment: Inhibition of Trypanosoma brucei rhodesain assessed as combinational index measured at fraction affected value of 0.99 in presence of curcumin using Cbz-Phe-Arg-AMC as substrate incubated for 30 mins by fluorescence based assay
Rhodesain = Rhodesain (Trypanosoma brucei rhodesiense, UniProt Q95PM0); experiment: Inhibition of Trypanosoma brucei rhodesain in presence of curcumin using Cbz-Phe-Arg-AMC as substrate incubated for 30 mins by fluorometric assay
Rhodesain, sequence (Q95PM0 whole entry): as the sequence (Q95PM0 1-450) above

[8] = biological target: Rhodesain (Trypanosoma brucei rhodesiense) (UniProt Q95PM0); experiment: Inhibition of Trypanosoma brucei rhodesain assessed as combinational index measured at fraction affected value of 0.80 in presence of curcumin using Cbz-Phe-Arg-AMC as substrate incubated for 30 mins by fluorescence based assay
[9] = biological target: Rhodesain (Trypanosoma brucei rhodesiense) (UniProt Q95PM0); experiment: Inhibition of Trypanosoma brucei rhodesain assessed as combinational index measured at fraction affected value of 0.50 in presence of curcumin using Cbz-Phe-Arg-AMC as substrate incubated for 30 mins by fluorescence based assay
[10] = biological target: Rhodesain (Trypanosoma brucei rhodesiense) (UniProt Q95PM0); experiment: Inhibition of Trypanosoma brucei rhodesain assessed as combinational index measured at fraction affected value of 0.10 in presence of curcumin using Cbz-Phe-Arg-AMC as substrate incubated for 30 mins by fluorescence based assay
[11] = biological target: Rhodesain (Trypanosoma brucei rhodesiense) (UniProt Q95PM0); experiment: Inhibition of Trypanosoma brucei rhodesain assessed as combinational index measured at fraction affected value of 0.20 in presence of curcumin using Cbz-Phe-Arg-AMC as substrate incubated for 30 mins by fluorescence based assay
[12] = biological target: Rhodesain (Trypanosoma brucei rhodesiense) (UniProt Q95PM0); experiment: Inhibition of Trypanosoma brucei rhodesain assessed as combinational index measured at fraction affected value of 0.90 in presence of curcumin using Cbz-Phe-Arg-AMC as substrate incubated for 30 mins by fluorescence based assay
[13] = biological target: Rhodesain (Trypanosoma brucei rhodesiense) (UniProt Q95PM0); experiment: Inhibition of Trypanosoma brucei rhodesain assessed as combinational index measured at fraction affected value of 0.70 in presence of curcumin using Cbz-Phe-Arg-AMC as substrate incubated for 30 mins by fluorescence based assay

| SMILES | IC50 [1] [µM] | inhibition [2] | CI [3] | CI [4] | IC50 [5] [nM] | CI [6] | CI [7] | IC50 (Rhodesain) [µM] | CI [8] | CI [9] | CI [10] | CI [11] | CI [12] | CI [13] |
| --- | --- | --- | --- | --- | --- | --- | --- | --- | --- | --- | --- | --- | --- | --- |
| CC(=O)/C=C/[C@H](CCc1ccccc1)NC(=O)[C@H](Cc1ccccc1)NC(=O)OCc1ccccc1 | 4.64 | Active | 0.886 | 1.07 | 2330 | 1 | 0.453 | 3.05 | 0.768 | 0.941 | 1.32 | 1.16 | 0.686 | 0.83 |
| COc1cc(/C=C/C(=O)CC(=O)/C=C/c2ccc(O)c(OC)c2)ccc1O [CURCUMIN] | – | inactive | – | – | 3120 | – | – | – | – | – | – | – | – | – |
